Drawing on patent publication US9216973B2, “Insecticidal compounds” (Syngenta Participations AG, priority 2008, dated 2015), this text covers melting point for two compounds.

Each structure is given as a SMILES string.

A word on the melting point: it is the temperature, or range, at which the solid turns liquid. Turning to `Cc1c(C(=O)NC2CSC2)cnn1C1=NOC(c2cc(Cl)cc(Cl)c2)(C(F)(F)F)C1` (centres unmarked) [B2], the melting point amounted to 77 °C.
The compound `O=C(NC1CSC1)c1cnn(C2=NOC(c3cc(Cl)cc(Cl)c3)(C(F)(F)F)C2)c1` (centres unmarked) [B4] showed a melting point of 85 to 87 °C.
